Assay results: PubChem BioAssay (NCI)
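Tested at 5 concentrations; 48 h exposure; 96-well plates; endpoints linearly interpolated, else capped at highest concentration. TGI: concentration producing complete growth inhibition.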 Where a SMILES comes first, the peptide text is derived from it.

Experiments:
Test in all cases: growth of human tumour cells (NCI), 48 h
SF-268 CNS = system: SF-268 CNS
HCT-15 colon = system: HCT-15 colon
PC-3 prostate = system: PC-3 prostate
NCI-H522 lung = system: NCI-H522 lung
HOP-92 NSCLC = system: HOP-92 NSCLC
SNB-19 CNS = system: SNB-19 CNS
T-47D breast = system: T-47D breast
A549 NSCLC = system: A549 NSCLC
MALME-3M melanoma = system: MALME-3M melanoma
SF-295 CNS = system: SF-295 CNS
KM12 colon = system: KM12 colon
MOLT-4 leukemia = system: MOLT-4 leukemia
NCI-H23 lung = system: NCI-H23 lung
DU-145 prostate = system: DU-145 prostate
COLO 205 colon = system: COLO 205 colon
SW-620 colon = system: SW-620 colon
UACC-257 melanoma = system: UACC-257 melanoma
TK-10 renal = system: TK-10 renal
MDA-MB-231 breast = system: MDA-MB-231 breast
NCI/ADR-RES ovarian = system: NCI/ADR-RES ovarian
NCI-H226 lung = system: NCI-H226 lung
NCI-H460 lung = system: NCI-H460 lung
SF-539 CNS = system: SF-539 CNS
M14 melanoma = system: M14 melanoma
LOX IMVI melanoma = system: LOX IMVI melanoma
K-562 leukemia = system: K-562 leukemia
OVCAR-5 ovarian = system: OVCAR-5 ovarian
HT29 colon = system: HT29 colon
MDA-N = system: MDA-N
SK-MEL-2 melanoma = system: SK-MEL-2 melanoma
OVCAR-8 ovarian = system: OVCAR-8 ovarian
SK-MEL-28 melanoma = system: SK-MEL-28 melanoma
HOP-62 NSCLC = system: HOP-62 NSCLC
IGROV1 ovarian = system: IGROV1 ovarian
HCT-116 colon = system: HCT-116 colon
CAKI-1 renal = system: CAKI-1 renal
SN12C renal = system: SN12C renal
HS 578T breast = system: HS 578T breast
SR leukemia = system: SR leukemia
HL-60(TB) leukemia = system: HL-60(TB) leukemia
ACHN renal = system: ACHN renal
SNB-75 CNS = system: SNB-75 CNS
OVCAR-4 ovarian = system: OVCAR-4 ovarian
OVCAR-3 ovarian = system: OVCAR-3 ovarian
786-0 renal = system: 786-0 renal
HCC-2998 colon = system: HCC-2998 colon
BT-549 breast = system: BT-549 breast
UACC-62 melanoma = system: UACC-62 melanoma
MCF7 breast = system: MCF7 breast
UO-31 renal = system: UO-31 renal
CCRF-CEM leukemia = system: CCRF-CEM leukemia
RXF 393 renal = system: RXF 393 renal
SK-MEL-5 melanoma = system: SK-MEL-5 melanoma
EKVX NSCLC = system: EKVX NSCLC
RPMI-8226 leukemia = system: RPMI-8226 leukemia
MDA-MB-435 = system: MDA-MB-435
SK-OV-3 ovarian = system: SK-OV-3 ovarian
U251 CNS = system: U251 CNS
A498 renal = system: A498 renal

Compound: CCC(C)C(NC(=O)C(NC(=O)C(CC(N)=O)NC(=O)CN)C(C)O)C(=O)NC(C(=O)NC(C)C(=O)NC(C(=O)NC(CCC(=O)O)C(=O)NC(CC(C)C)C(=O)NC(CC(=O)O)C(=O)NC(C(=O)NC(Cc1ccc(O)cc1)C(=O)N1CCCC1C(=O)O)C(C)O)C(C)C)C(C)C (configuration not stated) (H-GNTIVAVELDTYP-OH; configuration not given here)
- TGI (SF-268 CNS): > 50 µM
- TGI (HCT-15 colon): > 50 µM
- TGI (PC-3 prostate): > 50 µM
- TGI (NCI-H522 lung): > 50 µM
- TGI (HOP-92 NSCLC): > 50 µM
- TGI (SNB-19 CNS): > 50 µM
- TGI (T-47D breast): > 50 µM
- TGI (A549 NSCLC): > 50 µM
- TGI (MALME-3M melanoma): > 50 µM
- TGI (SF-295 CNS): > 50 µM
- TGI (KM12 colon): > 50 µM
- TGI (MOLT-4 leukemia): > 50 µM
- TGI (NCI-H23 lung): > 50 µM
- TGI (DU-145 prostate): > 50 µM
- TGI (COLO 205 colon): > 50 µM
- TGI (SW-620 colon): > 50 µM
- TGI (UACC-257 melanoma): > 50 µM
- TGI (TK-10 renal): > 50 µM
- TGI (MDA-MB-231 breast): > 50 µM
- TGI (NCI/ADR-RES ovarian): > 50 µM
- TGI (NCI-H226 lung): > 50 µM
- TGI (NCI-H460 lung): > 50 µM
- TGI (SF-539 CNS): > 50 µM
- TGI (M14 melanoma): > 50 µM
- TGI (LOX IMVI melanoma): > 50 µM
- TGI (K-562 leukemia): > 50 µM
- TGI (OVCAR-5 ovarian): > 50 µM
- TGI (HT29 colon): > 50 µM
- TGI (MDA-N): > 50 µM
- TGI (SK-MEL-2 melanoma): > 50 µM
- TGI (OVCAR-8 ovarian): > 50 µM
- TGI (SK-MEL-28 melanoma): > 50 µM
- TGI (HOP-62 NSCLC): > 50 µM
- TGI (IGROV1 ovarian): > 50 µM
- TGI (HCT-116 colon): > 50 µM
- TGI (CAKI-1 renal): > 50 µM
- TGI (SN12C renal): > 50 µM
- TGI (HS 578T breast): > 50 µM
- TGI (SR leukemia): > 50 µM
- TGI (HL-60(TB) leukemia): > 50 µM
- TGI (ACHN renal): > 50 µM
- TGI (SNB-75 CNS): > 50 µM
- TGI (OVCAR-4 ovarian): > 50 µM
- TGI (OVCAR-3 ovarian): > 50 µM
- TGI (786-0 renal): > 50 µM
- TGI (HCC-2998 colon): > 50 µM
- TGI (BT-549 breast): > 50 µM
- TGI (UACC-62 melanoma): > 50 µM
- TGI (MCF7 breast): > 50 µM
- TGI (UO-31 renal): > 50 µM
- TGI (CCRF-CEM leukemia): > 50 µM
- TGI (RXF 393 renal): > 50 µM
- TGI (SK-MEL-5 melanoma): > 50 µM
- TGI (EKVX NSCLC): > 50 µM
- TGI (RPMI-8226 leukemia): > 50 µM
- TGI (MDA-MB-435): > 50 µM
- TGI (SK-OV-3 ovarian): > 50 µM
- TGI (U251 CNS): > 50 µM

Compound: CCCCCCCCCCCC[C@@H](O)[C@H]1CC[C@H]([C@H]2CC[C@H]([C@H](O)CC[C@H](O)CCCCCCCC3=C[C@H](C)OC3=O)O2)O1
- TGI (SF-268 CNS): 3.32 µM
- TGI (HCT-15 colon): 4.33 µM
- TGI (PC-3 prostate): 2.9 µM
- TGI (HOP-92 NSCLC): 4.23 µM
- TGI (SNB-19 CNS): 2.62 µM
- TGI (T-47D breast): > 10 µM
- TGI (A549 NSCLC): 4.42 µM
- TGI (SF-295 CNS): 3.01 µM
- TGI (KM12 colon): 2.9 µM
- TGI (MOLT-4 leukemia): > 10 µM
- TGI (NCI-H23 lung): 2.31 µM
- TGI (DU-145 prostate): > 10 µM
- TGI (COLO 205 colon): 3.94 µM
- TGI (SW-620 colon): 5.82 µM
- TGI (UACC-257 melanoma): 2.35 µM
- TGI (TK-10 renal): 2.65 µM
- TGI (MDA-MB-231 breast): 6.36 µM
- TGI (NCI/ADR-RES ovarian): 3.8 µM
- TGI (NCI-H226 lung): 3.48 µM
- TGI (NCI-H460 lung): 2.82 µM
- TGI (SF-539 CNS): 3.12 µM
- TGI (M14 melanoma): 3.11 µM
- TGI (LOX IMVI melanoma): 2.76 µM
- TGI (K-562 leukemia): > 10 µM
- TGI (OVCAR-5 ovarian): 3.25 µM
- TGI (A498 renal): 4.94 µM
- TGI (HT29 colon): 3.25 µM
- TGI (MDA-N): 4.49 µM
- TGI (SK-MEL-2 melanoma): 2.93 µM
- TGI (OVCAR-8 ovarian): 4 µM
- TGI (SK-MEL-28 melanoma): 3.6 µM
- TGI (HOP-62 NSCLC): 2.96 µM
- TGI (IGROV1 ovarian): 3.2 µM
- TGI (HCT-116 colon): 4.42 µM
- TGI (CAKI-1 renal): 6.81 µM
- TGI (SN12C renal): 8.13 µM
- TGI (HS 578T breast): 5.48 µM
- TGI (SR leukemia): > 10 µM
- TGI (HL-60(TB) leukemia): 4.17 µM
- TGI (ACHN renal): 2.45 µM
- TGI (SNB-75 CNS): 3.77 µM
- TGI (OVCAR-3 ovarian): 2.95 µM
- TGI (786-0 renal): 5.66 µM
- TGI (BT-549 breast): 1.02 µM
- TGI (UACC-62 melanoma): 2.58 µM
- TGI (MCF7 breast): 2.72 µM
- TGI (UO-31 renal): 2.16 µM
- TGI (CCRF-CEM leukemia): 4.74 µM
- TGI (RXF 393 renal): 5.9 µM
- TGI (SK-MEL-5 melanoma): 4.48 µM
- TGI (EKVX NSCLC): 2.82 µM
- TGI (RPMI-8226 leukemia): 9.49 µM
- TGI (MDA-MB-435): 4.05 µM
- TGI (U251 CNS): 5.32 µM
